Target: glucosylceramide synthase (GCS) (Homo sapiens (Human), UniProt Q16739)
Assay: UDP-Glo glucosylceramide synthase biochemical assay
Conditions: endogenous GCS in Golgi preparations isolated from human A375 malignant melanoma skin cells; UDP detection by luminescence
From the text: A UDP-Glo™ glucosylceramide synthase biochemical assay was utilized to evaluate the effect of test compounds on the activity of endogenous levels of GCS enzyme contained within Golgi preparations isolated from human A375 malignant melanoma skin cells. The UDP-Glo™ glucosylceramide synthase assay uses UDP-Glucose as a nucleotide-glycosyl donor and ceramide as substrate acceptor molecules. In the reaction, glucosylceramide synthase (GCS) transfers glucose from UDP-Glucose to ceramide. Glucosylceramide and UDP are released as products.
Using Promega's UDP-Glo™ Glycosyltransferase assay kit (Promega Corporation, Madison, WI, USA (Promega)), GCS activity was indirectly measured by detecting the amount of UDP produced. An aliquot of GCS enzyme (1.5 μg crude golgi preparation, total protein) and titrated test compound were aliquoted to each well and incubated for 30 minutes at room temperature. […] An equivalent volume of substrate mixture was then added to each well. Following a 20 h incubation at room temperature to allow for GCS turnover of substrate, an equal volume of UDP detection reagent (Promega) was added to each well and incubated for an additional 75 minutes at room temperature to simultaneously convert the accumulated UDP product into ATP and generate light in a luciferase reaction. The generated light was detected using a luminometer. […] luminescence values (RLUs) were normalized to mean “min” and “max” effects, as determined on each plate. “Min” was defined as the mean of the values of the wells treated with vehicle (DMSO) and which represent 0% inhibition; “max” was defined as the mean of the values of the wells treated with a reference inhibitor and which represent the 100% effect. Values for % Emax and EC50 were determined by best-fitting the normalized data to a curve in Activity Base along a four-parameter logistic nonlinear regression (4PL) model (based on the Levenberg-Marquardt algorithm and defined by the equation below): […]
where: n is 4PMin (bottom of the curve); m is 4PMax (top of the curve); i is IP (inflection point of curve); and p is slope. See Levenberg, K., “A Method for the Solution of Certain Problems in Least Squares”, Quart. Appl. Math. 2, (1944), pp 164-168 and Marquardt, D., “An Algorithm for Least Squares Estimation on Nonlinear Parameters”, SIAM J. Appl. Math 11, (1963) pp 431-441.

glucosylceramide synthase (GCS), sequence (Q16739 whole entry): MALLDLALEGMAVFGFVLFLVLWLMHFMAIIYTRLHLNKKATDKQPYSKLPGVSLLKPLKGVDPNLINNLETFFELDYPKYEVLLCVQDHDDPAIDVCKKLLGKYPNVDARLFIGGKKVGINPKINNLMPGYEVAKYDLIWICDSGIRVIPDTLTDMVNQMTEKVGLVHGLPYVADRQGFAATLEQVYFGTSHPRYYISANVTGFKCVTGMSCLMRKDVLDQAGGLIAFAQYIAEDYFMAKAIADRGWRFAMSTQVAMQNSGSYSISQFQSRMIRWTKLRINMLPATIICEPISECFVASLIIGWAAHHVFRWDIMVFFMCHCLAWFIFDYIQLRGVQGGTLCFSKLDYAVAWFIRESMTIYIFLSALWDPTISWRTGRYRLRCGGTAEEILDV

Q: How did the IC50 turn out when `N#Cc1cnc(C2CC2)nc1NC1CCCc2sc(C3CCC3)nc21` (centres unmarked) [Compound 96, 4-((2-cyclobutyl-4,5,67-tetrahydrobenzo[d]thiazol-4-yl)amino)-2-cyclopropylpyrimidine-5-carbonitrile] was run?
A: The IC50 was 46 nM.

Q: Which IC50 does the source give for `OCc1c(Cl)nc(C2CC2)nc1N1Cc2nc(-c3ccccc3)oc2C1` [Compound 112, (4-chloro-2-cyclopropyl-6-(2-phenyl-4,6-dihydro-5H-pyrrolo[3,4-d]oxazol-5-yl)pyrimidin-5-yl)methanol] here?
A: The IC50 was 2330 nM.

Q: How did the IC50 turn out when `OCc1c(Cl)nc(C2CC2)nc1N1CCc2nc(C3CC3)sc2C1` [Compound 114, (4-chloro-2-cyclopropyl-6-(2-cyclopropyl-6,7-dihydrothiazolo[5,4-c]pyridin-5(4H)-yl)pyrimidin-5-yl)methanol] was run?
A: The IC50 was 3330 nM.

Q: How did the IC50 turn out when `N#Cc1cnc(C2CC2)nc1OC[C@H]1CCN(c2cccc(-n3nccn3)c2)C1` [Compound 20, (S)-4-((1-(3-(2H-1,2,3-triazol-2-yl)phenyl)pyrrolidin-3-yl)methoxy)-2-cyclopropylpyrimidine-5-carbonitrile] was run?
A: Its IC50 is 354 nM.

Q: Which IC50 does the source give for `N#Cc1cnc(C2CC2)nc1OC[C@H]1CCN(c2ccc(C(F)(F)F)cn2)C1` [Compound 43, (S)-2-cyclopropyl-4-((1-(5-(trifluoromethyl)pyridin-2-yl)pyrrolidin-3-yl)methoxy)pyrimidine-5-carbonitrile] here?
A: Its IC50 is 40 nM.

Q: `N#Cc1cnc(C2CC2)nc1OC[C@H]1CCN(c2cnc3ccsc3c2)C1` [Compound 21, (S)-2-cyclopropyl-4-((1-(thieno[3,2-b]pyridin-6-yl)pyrrolidin-3-yl)methoxy)pyrimidine-5-carbonitrile] was tested. Which IC50 did it give?
A: The IC50 was 1300 nM.

Q: `N#Cc1cnc(C2CC2)nc1OCC1CCN(c2ccc(Cl)cc2)C1` (centres unmarked) [Compound 57, 4-((1-(4-chlorophenyl)pyrrolidin-3-yl)methoxy)-2-cyclopropylpyrimidine-5-carbonitrile] was tested. Which IC50 did it give?
A: Its IC50 is 20 nM.

Q: Which IC50 does the source give for `CN(C[C@H]1CCN(c2ccc(-n3cccn3)nc2)C1)c1nc(C2CC2)ncc1C#N` [Compound 49, (S)-4-(((1-(6-(1H-pyrazol-1-yl)pyridin-3-yl)pyrrolidin-3-yl)methyl)(methyl)amino)-2-cyclopropylpyrimidine-5-carbonitrile] here?
A: Its IC50 is 1870 nM.

Q: `Cc1nc2c(s1)CCCC2Nc1nc(C2CC2)nc(Cl)c1CO` (centres unmarked) [Compound 109, (4-chloro-2-cyclopropyl-6-((2-methyl-4,5,6,7-tetrahydrobenzo[d]thiazol-4-yl)amino)pyrimidin-5-yl)methanol] was tested. Which IC50 did it give?
A: Its IC50 is 593 nM.

Q: How did the IC50 turn out when `Cc1nnc(-c2ccc(N3CC[C@H](COc4nc(C5CC5)ncc4C#N)C3)cc2)s1` [Compound 13, (S)-2-cyclopropyl-4-((1-(4-(5-methyl-1,3,4-thiadiazol-2-yl)phenyl)pyrrolidin-3-yl)methoxy)pyrimidine-5-carbonitrile] was run?
A: The IC50 was 80 nM.

Q: Which IC50 does the source give for `N#Cc1cnc(C2CC2)nc1N1CCCC(c2cc3cccnc3[nH]2)C1` (centres unmarked) [Compound 76, 4-(3-(1H-pyrrolo[2,3-b]pyridin-2-yl)piperidin-1-yl)-2-cyclopropylpyrimidine-5-carbonitrile] here?
A: The IC50 was 1480 nM.

Q: Which IC50 does the source give for `N#Cc1cnc(C2CC2)nc1N1CC2OCCN(Cc3ccccc3)C2C1` (centres unmarked) [Compound 86, 4-(4-benzylhexahydropyrrolo[3,4-b][1,4]oxazin-6(2H)-yl)-2-cyclopropylpyrimidine-5-carbonitrile] here?
A: Its IC50 is 937 nM.

Q: With `N#Cc1cnc(C2CC2)nc1NC1CCCc2sc(C3CCCC3)nc21` (centres unmarked) [Compound 95, 4-((2-cyclopentyl-4,5,6,7-tetrahydrobenzo[d]thiazol-4-yl)amino)-2-cyclopropylpyrimidine-5-carbonitrile] as the compound, how does the IC50 read?
A: Its IC50 is 19 nM.

Q: How did the IC50 turn out when `N#Cc1cnc(C2CC2)nc1OC[C@H]1CCN(c2ccnc(OC3CC3)c2)C1` [Compound 47, (S)-4-((1-(2-cyclopropoxypyridin-4-yl)pyrrolidin-3-yl)methoxy)-2-cyclopropylpyrimidine-5-carbonitrile] was run?
A: Its IC50 is 3090 nM.

Q: With `N#Cc1cnc(C2CC2)nc1OC1CN(Cc2ccc(F)cc2)C1` [Compound 60, 2-cyclopropyl-4-((1-(4-fluorobenzyl)azetidin-3-yl)oxy)pyrimidine-5-carbonitrile] as the compound, how does the IC50 read?
A: Its IC50 is 3950 nM.

Q: `N#Cc1cnc(C2CC2)nc1OC[C@H]1CCN(c2nnc(C3CC3)s2)C1` [Compound 23, (S)-2-cyclopropyl-4-((1-(5-cyclopropyl-1,3,4-thiadiazol-2-yl)pyrrolidin-3-yl)methoxy)pyrimidine-5-carbonitrile] was tested. Which IC50 did it give?
A: Its IC50 is 3660 nM.

Q: For `N#Cc1cnc(C2CC2)nc1OC[C@H]1CCN(c2cnc(-n3cccn3)cn2)C1` [Compound 56, (S)-4-((1-(5-(1H-pyrazol-1-yl)pyrazin-2-yl)pyrrolidin-3-yl)methoxy)-2-cyclopropylpyrimidine-5-carbonitrile], which IC50 is on record?
A: The IC50 was 161 nM.

Q: With `N#Cc1cnc(C2CC2)nc1OCC1CCN(c2ccc(Cl)cc2)C1` (centres unmarked) [Compound 58, 4-((1-(4-chlorophenyl)pyrrolidin-3-yl)methoxy)-2-cyclopropylpyrimidine-5-carbonitrile] as the compound, how does the IC50 read?
A: Its IC50 is 156 nM.

Q: Which IC50 does the source give for `Cc1ccc(-c2noc(CN3CCN(c4nc(C5CC5)ncc4C#N)CC3)n2)cc1` [Compound 88, 2-cyclopropyl-4-(4-((3-(p-tolyl)-1,2,4-oxadiazol-5-yl)methyl)piperazin-1-yl)pyrimidine-5-carbonitrile] here?
A: The IC50 was 446 nM.

Q: Which IC50 does the source give for `CC(C)N1C(=O)[C@]2(c3ccsc3)CN(c3nc(C4CC4)ncc3C#N)C[C@@H]2S1(=O)=O` [Compound 71, 2-cyclopropyl-4-((3aS,6aR)-2-isopropyl-1,1-dioxido-3-oxo-3a-(thiophen-3-yl)hexahydro-5H-pyrrolo[3,4-d]isothiazol-5-yl)pyrimidine-5-carbonitrile] here?
A: The IC50 was 832 nM.

Q: Which IC50 does the source give for `N#Cc1cnc(C2CC2)nc1N1CCc2c(sn(Cc3ccc(F)cc3)c2=O)C1` [Compound 69, 2-cyclopropyl-4-(2-(4-fluorobenzyl)-3-oxo-3,4,5,7-tetrahydroisothiazolo[5,4-c]pyridin-6(2H)-yl)pyrimidine-5-carbonitrile] here?
A: Its IC50 is 2760 nM.

Q: `N#Cc1cnc(C2CC2)nc1OC[C@H]1CCN(c2cc(C(F)(F)F)ccn2)C1` [Compound 46, (S)-2-cyclopropyl-4-((1-(4-(trifluoromethyl)pyridin-2-yl)pyrrolidin-3-yl)methoxy)pyrimdiine-5-carbonitrile] was tested. Which IC50 did it give?
A: The IC50 was 4190 nM.

Q: With `N#Cc1cnc(C2CC2)nc1NC(c1ccccc1)C1(N2CCCCC2)CCC1` (centres unmarked) [Compound 84, 2-cyclopropyl-4-((phenyl(1-(piperidin-1-yl)cyclobutyl)methyl)amino)pyrimidine-5-carbonitrile] as the compound, how does the IC50 read?
A: Its IC50 is 1240 nM.

Q: How did the IC50 turn out when `COc1ccc(N2CCC3(CCN(c4nc(C5CC5)ncc4CO)C3)C2)cc1` (centres unmarked) [Compound 125, (2-cyclopropyl-4-(7-(4-methoxyphenyl)-2,7-diazaspiro[4.4]nonan-2-yl)pyrimidin-5-yl)methanol] was run?
A: The IC50 was 902 nM.

Q: Which IC50 does the source give for `N#Cc1cnc(C2CC2)nc1OC[C@H]1CCN(c2cccc(-n3cccn3)c2)C1` [Compound 16, (S)-4-((1-(3-(1H-pyrazol-1-yl)phenyl)pyrrolidin-3-yl)methoxy)-2-cyclopropylpyrimidine-5-carbonitrile] here?
A: The IC50 was 357 nM.

Q: For `CC(Oc1nc(C2CC2)ncc1C#N)[C@H]1CCN(c2ncc(C(F)(F)F)cn2)C1` (stereo partly drawn) [Compound 50, 2-cyclopropyl-4-(1-((S)-1-(5-(trifluoromethyl)pyrimidin-2-yl)pyrrolidin-3-yl)ethoxy)pyrimidine-5-carbonitrile], which IC50 is on record?
A: Its IC50 is 81 nM.

Q: Which IC50 does the source give for `OCc1c(Cl)nc(C2CC2)nc1N1CCC[C@@H]1c1ncc(-c2ccccc2)s1` [Compound 113, (R)-(4-chloro-2-cyclopropyl-6-(2-(5-phenylthiazol-2-yl)pyrrolidin-1-yl)pyrimidin-5-yl)methanol] here?
A: The IC50 was 750 nM.

Q: How did the IC50 turn out when `N#Cc1cnc(C2CC2)nc1OC[C@H]1CCN(c2cccc(-c3nccs3)c2)C1` [Compound 10, (S)-2-cyclopropyl-4-((1-(3-(thiazol-2-yl)phenyl)pyrrolidin-3-yl)methoxy)pyrimidine-5-carbonitrile] was run?
A: The IC50 was 249 nM.

Q: For `N#Cc1cnc(C2CC2)nc1OCC1CCC(c2ccccc2)O1` (centres unmarked) [Compound 102, 2-cyclopropyl-4-((5-phenyltetrahydrofuran-2-yl)methoxy)pyrimidin-5-carbonitrile], which IC50 is on record?
A: Its IC50 is 195 nM.

Q: Which IC50 does the source give for `N#Cc1cnc(C2CC2)nc1NC1CCCc2sc(C3CCCCC3)nc21` (centres unmarked) [Compound 94, 4-((2-cyclohexyl-4,5,6,7-tetrahydrobenzo[d]thiazol-4-yl)amino)-2-cyclopropylpyrimidine-5-carbonitrile] here?
A: The IC50 was 14 nM.

Q: With `Cc1nc2c(s1)CCCC2Nc1nc(C2CC2)nc(Cl)c1C(F)F` (centres unmarked) [Compound 123, N-(6-chloro-2-cyclopropyl-5-(difluoromethyl)pyrimidin-4-yl)-2-methyl-4,5,6,7-tetrahydrobenzo[d]thiazol-4-amine] as the compound, how does the IC50 read?
A: Its IC50 is 841 nM.

Q: `N#Cc1cnc(C2CC2)nc1OC[C@H]1CCN(c2cccc3ncccc23)C1` [Compound 34, (S)-2-cyclopropyl-4-((1-(quinolin-5-yl)pyrrolidin-3-yl)methoxy)pyrimidine-5-carbonitrile] was tested. Which IC50 did it give?
A: Its IC50 is 2050 nM.

From patent publication US20250188057A1, “NON-AROMATIC CYCLIC-PYRIMIDINE ANALOGS AS GLUCOSYLCERAMIDE SYNTHASE INHIBITORS” (Merck Sharp & Dohme LLC, priority 2022, published 2025)
